From PMC4300089, “Structure-Guided Design of Selective Epac1 and Epac2 Agonists” (PLoS Biology, 2015)

Key:
Epac1 = target: T1, Epac1 (Homo sapiens, UniProt O95398); test: Epac activation assay, Epac1; format: biochemical
T1 construct: made in house
T1 sequence (O95398 150-881 isoform O95398-3): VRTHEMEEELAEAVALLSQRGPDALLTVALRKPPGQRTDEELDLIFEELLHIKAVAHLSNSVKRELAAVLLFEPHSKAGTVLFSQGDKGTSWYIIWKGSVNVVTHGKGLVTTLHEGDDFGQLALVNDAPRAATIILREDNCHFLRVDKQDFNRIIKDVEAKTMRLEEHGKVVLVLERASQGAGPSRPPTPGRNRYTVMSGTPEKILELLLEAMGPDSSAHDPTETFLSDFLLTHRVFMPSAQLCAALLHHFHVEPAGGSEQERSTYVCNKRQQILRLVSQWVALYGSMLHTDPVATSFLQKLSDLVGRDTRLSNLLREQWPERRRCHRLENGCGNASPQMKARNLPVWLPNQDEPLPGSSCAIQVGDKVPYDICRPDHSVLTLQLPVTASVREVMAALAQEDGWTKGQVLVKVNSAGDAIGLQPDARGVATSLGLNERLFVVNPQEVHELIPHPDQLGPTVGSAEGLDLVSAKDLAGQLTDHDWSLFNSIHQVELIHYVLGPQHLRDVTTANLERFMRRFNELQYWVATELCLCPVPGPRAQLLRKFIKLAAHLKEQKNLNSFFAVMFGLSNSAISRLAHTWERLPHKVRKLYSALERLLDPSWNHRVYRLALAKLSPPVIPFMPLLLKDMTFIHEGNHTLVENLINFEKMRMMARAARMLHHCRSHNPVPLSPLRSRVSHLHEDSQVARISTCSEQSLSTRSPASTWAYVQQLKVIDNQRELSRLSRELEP

PKA-IIα = target: T2, PKA-IIα (Homo sapiens, UniProt P13861); test: PKA activity assay, PKA-IIα; format: biochemical; conditions: for A (PKA activity): PKAIIα
T2 construct: made in house
Procedure: The recombinant human PKA catalytic subunit (Cα1) and the four human PKA regulatory subunits (RIα, RIβ, RIIα, RIIβ) were expressed, purified, and characterized as described. […] PKA holoenzymes were formed by mixing the R- and C-subunit at a molar ratio of 1.2:1 and extensive dialysis against 20 mM MOPS (pH 7.0), 150 mM NaCl, 2.5 mM β-mercaptoethanol, supplemented with 1 mM ATP and 10 mM MgCl2 for PKA-I at 4°C overnight. PKA holoenzymes were used at about 20 nM for the activation assay. The apparent activation constants (Kact) were determined by fitting the concentration-dependent activity to a sigmoid dose-response model.

T2 sequence (P13861 whole entry): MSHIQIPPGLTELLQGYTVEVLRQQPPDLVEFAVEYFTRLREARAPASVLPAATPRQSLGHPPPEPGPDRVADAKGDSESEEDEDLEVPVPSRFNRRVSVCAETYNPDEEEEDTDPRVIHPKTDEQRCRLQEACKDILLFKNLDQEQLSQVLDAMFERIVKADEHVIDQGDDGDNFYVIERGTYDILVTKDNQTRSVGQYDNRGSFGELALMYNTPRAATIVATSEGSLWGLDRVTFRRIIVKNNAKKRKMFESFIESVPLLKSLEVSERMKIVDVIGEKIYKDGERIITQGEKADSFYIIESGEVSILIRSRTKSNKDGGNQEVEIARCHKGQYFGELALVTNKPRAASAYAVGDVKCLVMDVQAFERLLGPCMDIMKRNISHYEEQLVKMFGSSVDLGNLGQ

Work on `Cc1ccc(CSc2nc3c(N)ncnc3n2[C@@H]2O[C@@H]3CO[P@](O)(=S)O[C@H]3[C@H]2O)cc1` [S-230, Sp-8-pMeBnT-cAMPS] yielded a kobs (Epac1; 0.3 μM compound) of 1e-05 s⁻¹, a kobs (Epac1; 0.5 μM compound) of 1e-05 s⁻¹ and a kobs (Epac1; 0.8 μM compound) of 1.1e-05 s⁻¹. The kobs (Epac1; 1 μM compound) was 1.4e-05 s⁻¹, the kobs (Epac1; 2 μM compound) was 2.1e-05 s⁻¹ and the kobs (Epac1; 3 μM compound) was 2.6e-05 s⁻¹. The kobs (Epac1; 4 μM compound) was 3e-05 s⁻¹, the kobs (Epac1; 5 μM compound) was 3.3e-05 s⁻¹ and the kobs (Epac1; 6 μM compound) was 3.8e-05 s⁻¹. It also gave a kobs (Epac1; 7 μM compound) of 4.1e-05 s⁻¹, a kobs (Epac1; 10 μM compound) of 5.6e-05 s⁻¹ and a kobs (Epac1; 20 μM compound) of 9.4e-05 s⁻¹. For the same compound, the kobs (Epac1; 30 μM compound) was 0.000115 s⁻¹, the kobs (Epac1; 40 μM compound) was 0.000131 s⁻¹ and the kobs (Epac1; 50 μM compound) was 0.000148 s⁻¹. For the same compound, the kobs (Epac1; 60 μM compound) was 0.000156 s⁻¹, the kobs (Epac1; 70 μM compound) was 0.000164 s⁻¹ and the kobs (Epac1; 80 μM compound) was 0.00017 s⁻¹. It also gave a kobs (Epac1; 100 μM compound) of 0.000198 s⁻¹, a kobs (Epac1; 200 μM compound) of 0.000232 s⁻¹ and a kobs (Epac1; 400 μM compound) of 0.000232 s⁻¹. The kobs (Epac1; 600 μM compound) was 0.000218 s⁻¹, the kobs (Epac1; 800 μM compound) was 0.000186 s⁻¹ and the “A (PKA activity)” value (PKA-IIα; concentration 1 μM) was 8.2345 U/mg. For the same compound, the “A (PKA activity)” value (PKA-IIα; concentration 5 μM) was 1.10E+01 U/mg, the “A (PKA activity)” value (PKA-IIα; concentration 1.00E+01 μM) was 1.22E+01 U/mg and the “A (PKA activity)” value (PKA-IIα; concentration 1.00E+03 μM) was 2.30E+01 U/mg. For the same compound, the “A (PKA activity)” value (PKA-IIα; concentration 1.00E-01 μM) was 5.026 U/mg, the “A (PKA activity)” value (PKA-IIα; concentration 1.00E-02 μM) was 4.542 U/mg and the “A (PKA activity)” value (PKA-IIα; concentration 1.00E-04 μM) was 5.243 U/mg. For the same compound, the “A (PKA activity)” value (PKA-IIα; concentration 1.00E-05 μM) was 3.782 U/mg, the “A (PKA activity)” value (PKA-IIα; concentration 2.50E+02 μM) was 1.76E+01 U/mg and the “A (PKA activity)” value (PKA-IIα; concentration 5.00E+01 μM) was 1.58E+01 U/mg. The “A (PKA activity)” value (PKA-IIα; concentration 5.00E+02 μM) was 2.11E+01 U/mg.
For `Nc1ncnc2c1ncn2[C@@H]1O[C@@H]2COP(=O)(O)O[C@H]2[C@H]1O` [cAMP, reference compound], the kobs (Epac1; 0.01 μM compound) was 1.1e-05 s⁻¹, the kobs (Epac1; 0.05 μM compound) was 1.4e-05 s⁻¹ and the kobs (Epac1; 0.08 μM compound) was 2.5e-05 s⁻¹. For the same compound, the kobs (Epac1; 0.1 μM compound) was 2.8e-05 s⁻¹, the kobs (Epac1; 0.3 μM compound) was 3e-05 s⁻¹ and the kobs (Epac1; 0.5 μM compound) was 3.8e-05 s⁻¹. It also gave a kobs (Epac1; 0.8 μM compound) of 4.7e-05 s⁻¹, a kobs (Epac1; 1 μM compound) of 5e-05 s⁻¹ and a kobs (Epac1; 2 μM compound) of 6.1e-05 s⁻¹. For the same compound, the kobs (Epac1; 3 μM compound) was 9.3e-05 s⁻¹, the kobs (Epac1; 4 μM compound) was 0.000116 s⁻¹ and the kobs (Epac1; 5 μM compound) was 0.000161 s⁻¹. For the same compound, the kobs (Epac1; 6 μM compound) was 0.000161 s⁻¹, the kobs (Epac1; 7 μM compound) was 0.000189 s⁻¹ and the kobs (Epac1; 8 μM compound) was 0.00021 s⁻¹. The kobs (Epac1; 10 μM compound) was 0.000256 s⁻¹, the kobs (Epac1; 20 μM compound) was 0.000421 s⁻¹ and the kobs (Epac1; 30 μM compound) was 0.000589 s⁻¹. For the same compound, the kobs (Epac1; 40 μM compound) was 0.000692 s⁻¹, the kobs (Epac1; 50 μM compound) was 0.000746 s⁻¹ and the kobs (Epac1; 60 μM compound) was 0.000796 s⁻¹. It also gave a kobs (Epac1; 70 μM compound) of 0.000848 s⁻¹, a kobs (Epac1; 80 μM compound) of 0.000859 s⁻¹ and a kobs (Epac1; 100 μM compound) of 0.000937 s⁻¹. It also gave a kobs (Epac1; 200 μM compound) of 0.00112 s⁻¹, a kobs (Epac1; 400 μM compound) of 0.0012 s⁻¹ and a kobs (Epac1; 600 μM compound) of 0.00116 s⁻¹. For the same compound, the kobs (Epac1; 800 μM compound) was 0.00118 s⁻¹, the “share of cAMP bound protein still in an inactive conformation” value (Epac1; Epac1, assuming the most efficient activators shift the equilibrium fully) was “about 65%” and the EC50 (PKA-IIα; PKA-IIα, read-out: Kact) was 80 nM. The “A (PKA activity)” value (PKA-IIα; concentration 1 μM) was 2.29E+01 U/mg, the “A (PKA activity)” value (PKA-IIα; concentration 1.00E+01 μM) was 2.43E+01 U/mg and the “A (PKA activity)” value (PKA-IIα; concentration 1.00E+02 μM) was 2.52E+01 U/mg. The “A (PKA activity)” value (PKA-IIα; concentration 1.00E-01 μM) was 1.58E+01 U/mg, the “A (PKA activity)” value (PKA-IIα; concentration 1.00E-02 μM) was 7.553 U/mg and the “A (PKA activity)” value (PKA-IIα; concentration 1.00E-03 μM) was 5.677 U/mg. The “A (PKA activity)” value (PKA-IIα; concentration 1.00E-04 μM) was 5.697 U/mg, the “A (PKA activity)” value (PKA-IIα; concentration 1.00E-05 μM) was 3.782 U/mg and the “A (PKA activity)” value (PKA-IIα; concentration 2.50E+02 μM) was 2.55E+01 U/mg. For the same compound, the “A (PKA activity)” value (PKA-IIα; concentration 2.50E-01 μM) was 1.90E+01 U/mg and the “A (PKA activity)” value (PKA-IIα; concentration 2.50E-02 μM) was 1.02E+01 U/mg.
